In US11312723B2, “Pyranopyrazole and pyrazolopyridine immunomodulators for treatment of autoimmune diseases” (The Rockefeller University, priority 2017, dated 2022):
Counter-ions that a name gives are not always drawn.

Experiments:
[1] = system: Collagen-Induced Arthritis (CIA) in DBA/1 Mice; test: Collagen-Induced Arthritis (CIA) in DBA/1 mice, model of rheumatoid arthritis; type: in vivo, mouse
Text: For in vivo confirmation of efficacy, Example 35 was studied in a model of rheumatoid arthritis. Collagen-Induced Arthritis (CIA) in DBA/1 Mice is one of the most commonly used animal models of human rheumatoid arthritis. The joint inflammation which develops in CIA resembles inflammation in human patients with rheumatoid arthritis. Therapeutic agents that reduce rheumatoid arthritis in people (e.g. NSAIDs, corticosteroids, methotrexate, etc) are also efficacious in CIA, and efficacy in the mouse CIA model has excellent predictive value for efficacy in rheumatoid arthritis. CIA is induced by immunization with type II collagen emulsified in Complete Freund's Adjuvant, followed by a booster immunization with type II collagen emulsified in incomplete Freund's Adjuvant. Three to four weeks after immunization, inflammation develops in mouse paws, Treatment is initiated at, the time of immunization and continues for 6 weeks. […] CIA is scored blind, by a person unaware of both treatment and of previous scores for each animal. The animal's score is the total of all four paw scores on scale of 0-16, where each paw is scored as follows: 0 Normal paw; 1 One toe inflamed and swollen; 2 More than one toe, but not entire paw, inflamed and swollen, or mild swelling of entire paw; 3 Entire paw inflamed and swollen; 4 Very inflamed and swollen paw or ankylosed paw.

Human FXIIa = Human FXIIa (Homo sapiens (Human), UniProt P00748); test: Factor XIIa (FXIIa) inhibitory activity, chromogenic substrate (Pefachrome XIIa) cleavage; type: biochemical; settings: 10 min pre-incubation, Pefachrome XIIa 400 μM
Human FXIIa, sequence (P00748 373-615): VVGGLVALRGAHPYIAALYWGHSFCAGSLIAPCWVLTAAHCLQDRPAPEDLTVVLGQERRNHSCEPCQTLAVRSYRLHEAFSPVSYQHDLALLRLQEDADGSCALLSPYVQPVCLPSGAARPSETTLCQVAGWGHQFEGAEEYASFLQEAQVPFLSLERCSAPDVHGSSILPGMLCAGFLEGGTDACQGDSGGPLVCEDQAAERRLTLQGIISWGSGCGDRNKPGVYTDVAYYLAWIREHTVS
Human FXIIa, sequence (P00748 20-372 partner): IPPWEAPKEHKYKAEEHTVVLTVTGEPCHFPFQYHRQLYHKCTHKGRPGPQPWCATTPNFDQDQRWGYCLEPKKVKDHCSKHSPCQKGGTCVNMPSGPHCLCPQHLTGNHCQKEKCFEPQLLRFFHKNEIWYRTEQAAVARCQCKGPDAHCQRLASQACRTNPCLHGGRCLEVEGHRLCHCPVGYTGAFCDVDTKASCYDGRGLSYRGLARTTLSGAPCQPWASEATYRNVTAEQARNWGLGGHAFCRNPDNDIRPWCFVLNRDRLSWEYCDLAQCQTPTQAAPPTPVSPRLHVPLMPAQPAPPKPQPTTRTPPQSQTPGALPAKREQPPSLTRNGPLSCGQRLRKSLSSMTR

Human alpha-thrombin = Human alpha-thrombin (Homo sapiens (Human), UniProt P00734); test: Thrombin counterscreen for selectivity, fluorogenic substrate cleavage; type: biochemical; settings: 10 min pre-incubation, Boc-Val-Pro-Arg-AMC 20 μM

| SMILES | Effect on disease phenotype compared to placebo ([1]; CIA model) | Maximum CIA score ± SD ([1]; scale 0-16, p value 0.0175 vs vehicle) | IC50 (Human FXIIa) [µM] | IC50 (Human alpha-thrombin) [µM] |
| --- | --- | --- | --- | --- |
| Cc1cccc2c1NCCC2C(=O)n1nc2c(c1N)CCN(S(C)(=O)=O)C2 (single isomer, unassigned) [Example 35, (S*)-(3-amino-6-(methylsulfonyl)-4,5,6,7-tetrahydropyrazolo[3,4-c]pyridine-2-yl)(8-methyl-1,2,3,4-tetrahydroquinolin-4-yl)methanone] | significantly ameliorated the disease phenotype compared to placebo | 5.6 ± 3.7 | 0.02 | 18 |
| Nc1c2c(nn1C(=O)C1CCNc3ccc(F)cc31)CN(S(=O)(=O)C1CC1)CC2 (stereo not drawn) [Example 144, (3-amino-6-(cyclopropyl-sulfonyl)-4,5,6,7-tetrahydro-pyrazolo[3,4-c]pyridin-2-yl)(6-fluoro-1,2,3,4-tetrahydro-quinolin-4-yl)methanone] | – | – | 0.23 | > 80 |
| CCCN1CCc2c(nn(C(=O)C3CCNc4ccc(F)cc43)c2N)C1 (stereo not drawn) [Example 149, (3-amino-6-propyl-4,5,6,7-tetrahydro-pyrazolo[3,4-c]pyridin-2-yl)(6-fluoro-1,2,3,4-tetrahydro-quinolin-4-yl)methanone] | – | – | 0.05 | 64 |
| CC(C)N1CCc2c(nn(C(=O)C3CCNc4ccc(F)cc43)c2N)C1 (stereo not drawn) [Example 151, Formic Acid salt of (3-amino-6-isopropyl-4,5,6,7-tetrahydro-pyrazolo[3,4-c]pyridin-2-yl)(6-fluoro-1,2,3,4-tetrahydro-quinolin-4-yl)methanone] | – | – | 0.04 | > 70 |
| CC(C)CN1CCc2c(nn(C(=O)C3CCNc4ccc(F)cc43)c2N)C1 (stereo not drawn) [Example 153, (3-amino-6-isobutyl-4,5,6,7-tetrahydro-pyrazolo[3,4-c]pyridin-2-yl)(6-fluoro-1,2,3,4-tetrahydro-quinolin-4-yl)methanone] | – | – | 0.05 | > 100 |
| Nc1c2c(nn1C(=O)C1CCNc3ccc(F)cc31)CN(S(=O)(=O)c1cccnc1)CC2 (stereo not drawn) [Example 157, (3-amino-6-(pyridin-3-ylsulfonyl)-4,5,6,7-tetrahydro-pyrazolo[3,4-c]pyridin-2-yl)(6-fluoro-1,2,3,4-tetrahydro-quinolin-4-yl)methanone] | – | – | 0.7 | 15 |
| Nc1c2c(nn1C(=O)C1CCNc3ccc(F)cc31)CN(S(=O)(=O)C(F)F)CC2 (stereo not drawn) [Example 159, (3-amino-6-(difluoromethyl-sulfonyl)-4,5,6,7-tetrahydro-pyrazolo[3,4-c]pyridin-2-yl)(6-fluoro-1,2,3,4-tetrahydro-quinolin-4-yl)methanone] | – | – | 0.13 | 70 |
| CCN1CCc2c(nn(C(=O)C3CCNc4ccc(Cl)cc43)c2N)C1 (stereo not drawn) [Example 161, (3-amino-6-ethyl-4,5,6,7-tetrahydro-pyrazolo[3,4-c]pyridin-2-yl)(6-chloro-1,2,3,4-tetrahydro-quinolin-4-yl)methanone] | – | – | 0.05 | 20 |
| CCN1CCc2c(nn(C(=O)C3CCNc4ccc(F)cc43)c2N)C1 (stereo not drawn) [Example 163, (3-amino-6-ethyl-4,5,6,7-tetrahydro-pyrazolo[3,4-c]pyridin-2-yl)(6-fluoro-1,2,3,4-tetrahydro-quinolin-4-yl)methanone] | – | – | 0.03 | > 100 |
| Nc1c2c(nn1C(=O)C1CCNc3ccc(F)cc31)CN(c1ccccn1)CC2 (stereo not drawn) [Example 167, (3-amino-6-(pyridin-2-yl)-4,5,6,7-tetrahydro-pyrazolo[3,4-c]pyridin-2-yl)(6-fluoro-1,2,3,4-tetrahydro-quinolin-4-yl)methanone] | – | – | 60 | > 120 |
| CS(=O)(=O)N1CCc2c(nn(C(=O)C3CCNc4ccc(-c5ccncc5)cc43)c2N)C1 (stereo not drawn) [Example 168, (3-amino-6-(methylsulfonyl)-4,5,6,7-tetrahydro-pyrazolo[3,4-c]pyridin-2-yl)(6-(pyridin-4-yl)-1,2,3,4-tetrahydro-quinolin-4-yl)methanone] | – | – | 2 | 3.5 |
| CS(=O)(=O)N1CCc2c(N)nn(C(=O)C3CCNc4ccc(-c5ccncc5)cc43)c2C1 (stereo not drawn) [Example 169, (3-amino-6-(methylsulfonyl)--4,5,6,7-tetrahydro-pyrazolo[3,4-c]pyridin-1-yl)(6-(pyridin-4-yl)-1,2,3,4-tetrahydro-quinolin-4-yl)methanone] | – | – | 15 | 15 |
| Cc1cccc2c1NCCC2C(=O)n1nc2c(c1N)COCC2 (stereo not drawn) [Example 188, (3-amino-6,7-dihydropyrano[4,3-c]pyrazol-2(4H)-yl)(8-methyl-1,2,3,4-tetrahydro-quinolin-4-yl)methanone] | – | – | 0.17 | > 80 |
| Nc1c2c(nn1C(=O)C1CCNc3ccc(F)cc31)COCC2 (stereo not drawn) [Example 194, (3-amino-4,5-dihydropyrano[3,4-c]pyrazol-2(7H)-yl)(6-fluoro-1,2,3,4-tetrahydro-quinolin-4-yl)methanone] | – | – | 0.16 | 70 |
